The text below walks through data of patent publication US9265747B2, “Platinum (IV) complexes for use in dual mode pharmaceutical therapy” (Massachusetts Institute of Technology, priority 2008, dated 2016).

For data set [1], the system named is MRC-5, normal lung fibroblast. In words: MTT assay, MRC-5 normal cells. The format is cell-based, human. How it is done: (§1) MTT Assay. Cytotoxic behavior of compound 1, DCA and cis-DDP were evaluated using the MTT assay. Solutions of the platinum complexes were freshly prepared in sterile PBS before use and quantitated by atomic absorption spectroscopy. Cells were seeded on a 96 well plate (1000 cells per well for NTera-2, U2OS, HeLa; 1400 per well for normal fibriblast; 500 per well for 7B, 10B, 175F and 150×2) in 100 μL DMEM media and incubated for 24 hours. The cells were then treated with compound 1, DCA or cis-DDP, separately at varying concentrations and incubated for 72 hours at 37° C. The cells were then treated with 20 μL of 3-(4,5-dimethylthiazol-2-yl)-2,5-diphenyltetrazolium bromide (MTT) (5 mg/mL in PBS) and incubated for 5 h. The medium was removed, the cells were lysed by adding 100 μl, of DMSO, and the absorbance of the purple formazan was recorded at 550 nm using a BioTek Synergy HT multi-detection microplate plate reader. Each well was performed in triplicate in three independent experiments for each cell line.

Data set [2] deals with A2780/CP70, cisplatin-resistant human ovarian carcinoma. In words: MTT assay, A2780/CP70 cells. The note with it: 72 h; for IC50: A2780/CP70 cisplatin resistant cells. The format is cell-based. The method, then:
(§2) A more negative membrane potential might promote translocation of the active, cationic form of cisplatin from the cytoplasm to mitochondria, thus diminishing platination of nuclear DNA. […] Thus, a pair of cisplatin sensitive A2780 and resistant A2780/CP70 ovarian cancer cells were studied (Table 1 and FIG. 10). […] (▴) with (A) cisplatin sensitive A2780 cells and (B) cisplatin resistant A2780/CP70 cells, after 72 h as determined by the MTT assay. The controls were cisplatin and c,c,t-[Pt(NH3)2Cl2(O2CCH3)2]. […] Results for the A2780/CP70 cells indicate that DCA plays a role, in this embodiment, in making cisplatin-resistant cells susceptible towards mitaplatin treatment.
as §1

For another data set, the system named is U2OS, human osteosarcoma. In words: MTT assay, U2OS cells. The format is cell-based. The following applies: 72 hours. How it is done: (§3) Cell Line and Cell Culture. Healthy normal fibroblast GM61869, human cancer NTera-2, human cervical cancer HeLa, human osteosarcoma cell line U2OS were obtained from the ATCC. Cells were incubated at 37° C. in 5% CO2 and grown in DMEM medium supplemented with 10% fetal bovine serum and 1% penicillin/streptomycin. Cells were passed every 3 to 4 days and restarted from the frozen stock upon reaching pass number 20.
as §1

The subject of data set [3] is A549, human lung carcinoma. In words: MTT assay, A549 cells. The format is cell-based. The following applies: 72 hours. How it is done:
[The procedure below names another cell line; the source lists this cell line under the same test.] as §1

Data set [4] concerns HeLa, human cervical cancer. The data set can be described thus: MTT assay, HeLa cells. The data set is classed as cell-based. The note with it: 72 hours. How it is done:
as §3, §1

Data set [5] relates to A2780, human ovarian carcinoma. In words: MTT assay, A2780 cells. The format is cell-based. The note with it: A2780 cisplatin sensitive cells, 72 h. How it is done: as §2, §1
Data set [6] concerns NTera-2, human testicular cancer. In words: MTT assay, NTera-2 cells. The data set is classed as cell-based. The method, then:
as §3, §1

The test system of data set [7] is MCF-7, human breast adenocarcinoma. In words: MTT assay, MCF-7 cells. The format is cell-based. How it is done: [The procedure below names another cell line; the source lists this cell line under the same test.] as §1
For data set [8], the system named is NTera, HeLa, U2OS, A549, and MCF-7 cancer cells as well as MRC-5 normal fibroblasts. In words: MTT assay, control experiments in all cells. The format is cell-based, human. How it is done: The ability of the compound 1 to promote cell death was determined using the MTT assay and the results were compared against those for cisplatin or -2 DCA using NTera, HeLa, U2OS, A549, and MCF-7 cancer cells as well as MRC-5 normal fibroblasts (FIG. 3). […] This enhanced potency of mitaplatin is consistent with the expected dual killing mechanism.
as §1

Another data set has as its system normal MRC-5 cells. The data set can be described thus: Annexin-V flow cytometry, normal MRC-5 cells. The following applies: 72 h, cisplatin at 10 μM. The format is cell-based, human. How it is done: (§4) In order to quantify mitaplatin-induced apoptosis in cancer cells, an Annexin-V was performed and analyzed using flow cytometry. With this analysis, the percentage of apoptotic cells found was determined at 72 h after exposure of mitaplatin and cisplatin.

In another data set the test system is U2OS. The data set can be described thus: Annexin-V flow cytometry, U2OS cells. The following applies: 10 and 20 μM, 72 h. The data set is classed as cell-based, human. The method, then: as §4
A further data set concerns HeLa. The data set can be described thus: Annexin-V flow cytometry, HeLa cells. The data set is classed as cell-based, human. The following applies: 10 and 20 μM, 72 h. How it is done:
as §4

Data set [9] relates to normal fibroblasts and cancerous NTera-2 cells. In words: Co-culture of normal fibroblasts and cancerous NTera-2 cells. The data set is classed as cell-based, human. The source says:
Cisplatin kills both NTera-2 and normal fibroblast cells

A further data set relates to A549. The data set can be described thus: Annexin-V flow cytometry, A549 cells. The format is cell-based, human. The following applies: 10 and 20 μM, 72 h. The method, then:
as §4

Some results are limits rather than exact numbers.

With `O=C(O)C(Cl)Cl` [DCA, Dichloroacetic acid], the IC50 in data set [1] (Homo sapiens, MRC5, 72 hours) is greater than 100 µM; in data set [2] (Homo sapiens), greater than 120 µM; in the data set with U2OS, human osteosarcoma (Homo sapiens), greater than 100 µM; in data set [3] (Homo sapiens), greater than 200 µM; in data set [4] (Homo sapiens), greater than 8 µM; in data set [5] (Homo sapiens), greater than 120 µM. Moreover, the IC50 is greater than 0.4 µM in data set [6] (Homo sapiens, NTERA2, 72 hours) and greater than 100 µM in data set [7] (Homo sapiens, MCF7, 72 hours).
For the compound `CC(=O)[O][Pt]([NH2])([NH2])([Cl])([Cl])[O]C(C)=O` [c,c,t-[Pt(NH3)2Cl2(O2CCH3)2]], in [2] (A2780/CP70 cells), the “resistance of A2780/CP70 cells to the compound” value is reported as “much more resistant”. In addition, the “activity relative to mitaplatin” value in data set [8] is listed as “less active by several fold than mitaplatin”.
In the case of cis-[Pt(NH3)2Cl2] [Cisplatin], the IC50 came to 9.5 µM in data set [1] (72 hours); 6 µM in [2]; 3.9 µM in the data set on U2OS, human osteosarcoma; 12 µM in data set [3]; 1.2 µM in [4]; 0.56 µM in data set [5]. Further, the IC50 is 0.043 µM in [6] (72 hours); 0.05 µM in [6] (72 hours, listed as cis-DDP); 13 µM in data set [7] (72 hours). The “apoptosis (Annexin-V)” value with normal MRC-5 cells is recorded as “showed apoptosis”; with U2OS, “Apoptosis was detected”; in the data set with HeLa, “Apoptosis was detected”; in the data set on A549, “Apoptosis was detected”. Further, the “cell killing in co-culture” value in data set [9] is “kills both the normal and cancer cells”.
